Results reported in patent EP1144369B1 (Wyeth Holdings Corporation, priority 1999, dated 2000).

Columns and labels:
[1] = molecular target: T1, MMP-1 (Homo sapiens, UniProt P03956); assay: MMP-1 inhibition (thiopeptide or fluorescent peptide substrate); type: biochemical; details: for IC50: plain number = IC50; for inhibition at 10 µM: read-out: IC50 (nM) or % Inhibition (µM) MMP-1
T1 sequence (P03956 100-469): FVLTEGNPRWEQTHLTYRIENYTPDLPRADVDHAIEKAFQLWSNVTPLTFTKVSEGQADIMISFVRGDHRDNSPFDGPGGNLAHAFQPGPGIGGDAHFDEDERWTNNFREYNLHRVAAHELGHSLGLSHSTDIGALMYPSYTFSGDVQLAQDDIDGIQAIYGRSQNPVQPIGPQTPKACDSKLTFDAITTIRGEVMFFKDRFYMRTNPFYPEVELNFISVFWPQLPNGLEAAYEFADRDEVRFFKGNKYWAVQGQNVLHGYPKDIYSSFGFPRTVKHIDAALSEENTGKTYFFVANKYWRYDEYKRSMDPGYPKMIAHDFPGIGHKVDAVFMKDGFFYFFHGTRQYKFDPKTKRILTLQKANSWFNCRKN
Procedure: (§1) The enzyme activity is measured by the rate of the color increase. The thiopeptide substrate is made up fresh as a 20 mM stock in 100% DMSO and the DTNB is dissolved in 100% DMSO as a 100 mM stock and stored in the dark at room temperature. Both the substrate and DTNB are diluted together to 1 mM with substrate buffer (50 mM HEPES pH 7.5, 5 mM CaCl2) before use. The stock of enzyme is diluted with buffer (50 mM HEPES, pH 7.5, 5 mM CaCl2, 0.02% Brij) to the desired final concentration.
(§2) Alternatively, a fluorescent peptide substrate is used. In this test procedure, the peptide substrate contains a fluorescent group and a quenching group. Upon cleavage of the substrate by an MMP, the fluorescence that is generated is quantitated on the fluorescence plate reader. The assay is run in HCBC assay buffer (50mM HEPES, pH 7.0, 5 mM Ca^+2, 0.02% Brij, 0.5% Cysteine), with human recombinant MMP-1, MMP-9, or MMP-13. The substrate is dissolved in methanol and stored frozen in 1 mM aliquots. For the assay, substrate and enzymes are diluted in HCBC buffer to the desired concentrations. Compounds are added to the 96 well plate containing enzyme and the reaction is started by the addition of substrate.
(§3) For either the thiopeptide or fluorescent peptide test procedures, the slope of the line is calculated and represents the reaction rate. The linearity of the reaction rate is confirmed (r^2 >0.85). The mean (x±sem) of the control rate is calculated and compared for statistical significance (p<0.05) with drug-treated rates using Dunnett's multiple comparison test.

[2] = molecular target: MMP-9 (Homo sapiens, UniProt P14780); assay: MMP-9 inhibition (thiopeptide or fluorescent peptide substrate); type: biochemical
Procedure: as §1, §2, §3

[3] = molecular target: MMP-13 (Homo sapiens, UniProt P45452); assay: MMP-13 inhibition (thiopeptide or fluorescent peptide substrate); type: biochemical
Procedure: as §1, §2, §3

[4] = molecular target: TNF-α converting enzyme (TACE) (Homo sapiens, UniProt P78536); assay: TACE inhibition (fluorescent peptidyl substrate); type: biochemical; details: read-out: IC50 (nM) or % Inhibition (µM) TACE
Procedure: Using 96-well black microtiter plates, each well receives a solution composed of 10 µL TACE (final concentration 1µg/mL), 70µL Tris buffer, pH 7.4 containing 10% glycerol (final concentration 10 mM), and 10 µL of test compound solution in DMSO (final concentration 1µM, DMSO concentration <1%) and incubated for 10 minutes at room temperature. The reaction is initiated by addition of a fluorescent peptidyl substrate (final concentration 100 µM) to each well and then shaking on a shaker for 5 sec.
The reaction is read (excitation 340 nm, emission 420 nm) for 10 min. and the increase in fluorescence over time is plotted as a linear line. The slope of the line is calculated and represents the reaction rate.
The linearity of the reaction rate is confirmed (r^2 >0.85). The mean (x±sem) of the control rate is calculated and compared for statistical significance (p<0.05) with drug-treated rates using Dunnett's multiple comparison test.

[5] = system: THP-1 cells; assay: THP-1 soluble protein assay (LPS-stimulated human monocytic THP-1 cells); type: cell-based; details: LPS-stimulated THP-1 cells; for inhibition at 3 µM: Homo sapiens, read-out: % Inhib. @ 3µM THP
Description: Mitogenic stimulation of THP-1 cells cause differentiation into macrophage like cells with concomitant secretion of tumor necrosis factor (TNF-a) and TNF receptor (TNF-R p75/80 and TNF-R p55/60) and Interleukin-8 (IL-8), among other proteins. In addition, non-stimulated THP-1 cells shed both the p75/80 and the p55/60 receptors over time. The release of membrane bound TNF-α and possibly TNF-R p75/80 and TNF-R p55/60, but not IL-8, is mediated by an enzyme called TNF-a converting enzyme or TACE.
THP-1 cells (from ATCC) are a human monocytic cell line which were obtained from the peripheral blood of a person with acute monocytic leukemia. They can be grown in culture and differentiated into macrophage like cells by stimulation with mitogens.
Each vial of cells are cultured for about two weeks prior to being used for an assay and then are used for only 4 to 6 weeks to screen compounds.
Cell exposure to DMSO was limited to 0.1 % final concentration. […] Compounds can be evaluated for their effect on basal (non-stimulated) shedding of the receptors by replacing the LPS with […] of THP-1 media. Plates are placed into an incubator set at 5% CO2 and at 37°C. After 4 hours of incubation, […] of tissue culture supernatant (TCS) is removed for use in an TNF-a ELISA. Following 24 hours of incubation, […] of TCS is removed and used for analysis in TNF-R p75/80, TNF-R p55/60 and IL-8 ELISAs.
In addition, at the 24 hours timepoint, and the cells for each treatment group are collected by resuspension in 500 µl/well of THP-1 media and transferred into a FACS tube. […] The samples are run on a Becton Dickinson FaxCaliber FLOW cytometry machine and the amount of dye taken up by each cell is measured in the high red wavelength (FL3). Only cells with compromised membranes (dead or dying) can take up PI. The percent of live cells is calculated by the number of cells not stained with PI, divided by the total number of cells in the sample. The viability values calculated for the drug treated groups were compared to the viability value calculated for the vehicle treated mitogen stimulated group ("vehicle positive control") to determine the "percent change from control". This "percent change from control" value is an indicator of drug toxicity.
The quantity of soluble TNF-a, TNF-R p75/80 and TNF-R p55/60 and IL-8 in the TCS of the THP-1 cell cultures are obtained with commercially available ELISAs from R&D Systems, by extrapolation from a standard curve generated with kit standards. The number of cells that either take up or exclude PI are measured by the FLOW cytometry machine and visualized by histograms using commercially available Cytologic software for each treatment group including all controls.
Biological variability in the magnitude of the response of THP-1 cell cultures requires that experiments be compared on the basis of percent change from "vehicle positive control" for each drug concentration. Percent change in each soluble protein evaluated from the "vehicle positive control" was calculated for each compound concentration with the following formula: % Change =(pg/ml(compound) - pg/ml (veh pos control))/(pg/ml (veh pos control) - pg/ml(veh neg control))x 100 [formula]
For the soluble protein (TNF-a, p75/80, p55/60, IL-8) studies under stimulated conditions, the mean pg/ml of duplicate wells were determined and the results expressed as percent change from "vehicle positive control". For the soluble protein (p75/80 and p55/60 receptors) studies under non-stimulated conditions, the mean pg/ml of duplicate wells were determined and the results expressed as percent change from "vehicle positive control" utilizing the following formula: % Change =(pg/ml (compound neg control) - pg/ml (veh neg control)/(pg/ml (veh neg control))X 100 [formula]
IC50 values for each compound are calculated by non-linear regression analysis using customized software utilizing the JUMP statistical package.

Chain of TNF-α converting enzyme (TACE) (P78536 215-824, species assumed): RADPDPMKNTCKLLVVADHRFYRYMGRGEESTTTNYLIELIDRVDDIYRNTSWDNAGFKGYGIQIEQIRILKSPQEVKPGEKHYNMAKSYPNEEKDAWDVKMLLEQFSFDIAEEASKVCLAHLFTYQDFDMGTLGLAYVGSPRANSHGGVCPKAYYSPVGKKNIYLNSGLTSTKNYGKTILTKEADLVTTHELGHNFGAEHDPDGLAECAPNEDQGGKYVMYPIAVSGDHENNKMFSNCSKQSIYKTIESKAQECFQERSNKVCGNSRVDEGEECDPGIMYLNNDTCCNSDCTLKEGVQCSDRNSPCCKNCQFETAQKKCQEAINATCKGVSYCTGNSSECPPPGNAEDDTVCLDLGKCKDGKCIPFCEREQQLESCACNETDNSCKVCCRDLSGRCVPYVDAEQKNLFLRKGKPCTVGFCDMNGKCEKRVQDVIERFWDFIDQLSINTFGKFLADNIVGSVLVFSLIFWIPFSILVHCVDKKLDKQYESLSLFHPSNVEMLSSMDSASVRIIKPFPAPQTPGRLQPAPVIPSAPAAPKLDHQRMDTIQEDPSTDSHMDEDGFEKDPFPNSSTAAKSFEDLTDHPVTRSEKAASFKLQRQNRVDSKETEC
Chain of MMP-9 (P14780 94-707): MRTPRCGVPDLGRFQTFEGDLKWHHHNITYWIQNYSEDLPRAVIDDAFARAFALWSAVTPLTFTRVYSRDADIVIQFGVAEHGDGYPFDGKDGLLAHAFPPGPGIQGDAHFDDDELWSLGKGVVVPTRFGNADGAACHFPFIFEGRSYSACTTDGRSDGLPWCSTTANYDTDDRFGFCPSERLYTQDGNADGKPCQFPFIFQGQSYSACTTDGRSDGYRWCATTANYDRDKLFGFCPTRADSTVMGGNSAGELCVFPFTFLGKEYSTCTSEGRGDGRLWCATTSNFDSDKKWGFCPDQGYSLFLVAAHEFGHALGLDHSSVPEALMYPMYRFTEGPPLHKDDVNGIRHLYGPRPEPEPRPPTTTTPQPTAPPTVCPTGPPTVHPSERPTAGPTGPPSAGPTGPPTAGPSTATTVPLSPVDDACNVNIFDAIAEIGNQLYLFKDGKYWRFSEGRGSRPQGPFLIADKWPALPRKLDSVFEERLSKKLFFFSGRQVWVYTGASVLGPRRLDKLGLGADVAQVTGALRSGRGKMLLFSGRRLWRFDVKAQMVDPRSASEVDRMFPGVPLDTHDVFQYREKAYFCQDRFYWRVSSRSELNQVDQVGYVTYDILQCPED

IC50 [1] [nM] | IC50 [2] [nM] | IC50 [3] [nM] | IC50 [4] [nM] | inhibition at 10 µM [1] [%] | Compound | inhibition at 3 µM [5] [%] | % Inhib. @ 3µM THP [5] [%]
7800 | 387 | 233 | 11 | – | COCC#CCOc1ccc(S(=O)(=O)N(C)c2c(C)cc(Br)cc2C(=O)NO)cc1 [Example 58, 5-Bromo-N-hydroxy-2-{[4-(4-methoxy-but-2-ynyloxy)-benzenesulfonyl]-methyl-amino}-3-methyl-benzamide] | 46 | –
3350 | 602 | 537 | 148 | – | Cc1cc(Br)cc(C(=O)NO)c1N(C)S(=O)(=O)c1ccc(OCC#CCN2CCCC2)cc1 [Example 65, 5-Bromo-N-hydroxy-3-methyl-2-{methyl-[4-(4-pyrrolidin-1-yl-but-2-ynyloxy)-benzenesulfonyl]-amino}-benzamide] | 12 | –
3600 | 901 | 588 | 104 | – | COc1ccc(C#CCOc2ccc(S(=O)(=O)N(C)c3c(C)cc(Br)cc3C(=O)NO)cc2)cc1 [Example 62, 5-Bromo-N-hydroxy-2-({4-[3-(4-methoxy-phenyl)-prop-2-ynyloxy]-benzenesulfonyl}-methyl-amino)-3-methyl-benzamide] | 15 | –
– | 1200 | 908 | 29 | 32 | Cc1cc(Br)cc(C(=O)NO)c1N(C)S(=O)(=O)c1ccc(OCC#CCNCCCN(C)C)cc1 [Example 33, 5-Bromo-2-({4-[4-(3-dimethylamino-propylamino)-but-2-ynyloxy]-benzenesulfonyl}-methyl-amino)-N-hydroxy-3-methyl-benzamide] | 14 | –
– | 396 | 177 | 30 | 25 | Cc1cc(Br)cc(C(=O)NO)c1N(C)S(=O)(=O)c1ccc(OCC#CCOC2CCCCO2)cc1 (centres unmarked) [Example 69, 5-Bromo-N-hydroxy-3-methyl-2-(methyl-{4-[4-(tetrahydro-pyran-2-yloxy)-but-2-ynyloxy]-benzenesulfonyl}-amino)-benzamide] | 19 | –
2360 | 232 | 358 | 47 | – | CCCC#CCOc1ccc(S(=O)(=O)N(C)c2c(C)cc(Br)cc2C(=O)NO)cc1 [Example 57, 5-Bromo-2-[(4-hex-2-ynyloxy-benzenesulfonyl)-methyl-amino]-N-hydroxy-3-methyl-benzamide] | 11 | –
113 | 694 | 189 | 34 | – | Cc1cc(Br)cc(C(=O)NO)c1N(C)S(=O)(=O)c1ccc(OCC#Cc2cccc(O)c2)cc1 [Example 84, 5-Bromo-N-hydroxy-2-({4-[3-(3-hydroxy-phenyl)-prop-2-ynyloxy]-benzenesulfonyl}-methyl-amino)-3-methyl-benzamide] | 0 | –
113 | 15 | 52 | 11 | – | C#CCOc1ccc(S(=O)(=O)N(C)c2c(C)cc(Br)cc2C(=O)NO)cc1 [Example 53, 5-Bromo-N-hydroxy-3-methyl-2-[methyl-(4-prop-2-ynyloxy-benzenesulfonyl)-amino]-benzamide] | 55 | –
1230 | 800 | 289 | 12 | – | CCC#CCOc1ccc(S(=O)(=O)N(C)c2c(C)cc(Br)cc2C(=O)NO)cc1 [Example 55, 5-Bromo-N-hydroxy-3-methyl-2-[methyl-(4-pent-2-ynyloxy-benzenesulfonyl)-amino]-benzamide] | 48 | –
– | 643 | 255 | 58 | 26 | CNCC#CCOc1ccc(S(=O)(=O)N(C)c2c(C)cc(Br)cc2C(=O)NO)cc1 [Example 32, 5-Bromo-N-hydroxy-3-methyl-2-{methyl-[4-(4-methylamino-but-2-ynyloxy)-benzenesulfonyl]-amino}-benzamide] | 15 | –
4240 | 578 | 518 | 135 | – | CC#CCOc1ccc(S(=O)(=O)N(C)c2c(C)cc(-c3ccccc3)cc2C(=O)NO)cc1 [Example 43, 4-[(4-But-2-ynyloxy-benzenesulfonyl)-methyl-amino]-5-methyl-biphenyl-3-carboxylic acid hydroxyamide] | 76 | –
1530 | 455 | 433 | 122 | – | C#CC(C)Oc1ccc(S(=O)(=O)N(C)c2c(C)cc(Br)cc2C(=O)NO)cc1 (centres unmarked) [Example 79, 5-Bromo-N-hydroxy-3-methyl-2-{methyl-[4-(1-methyl-prop-2-ynyloxy)-benzenesulfonyl]-amino}-benzamide] | 9 | –

Compound | IC50 [1] [nM] | IC50 [2] [nM] | IC50 [3] [nM] | IC50 [4] [nM] | inhibition at 10 µM [1] [%] | inhibition at 3 µM [5] [%] | % Inhib. @ 3µM THP [5] [%]
5-Bromo-2-[(4-butoxy-benzenesulfonyl)-methyl-amino]-N-hydroxy-3-methyl-benzamide [Example 39] | 2490 | 21 | 68 | 67 | – | – | 0
